The values below come from ChEMBL document CHEMBL1155401, “The development of benzimidazoles as selective rho kinase inhibitors” (Bioorg Med Chem Lett, 2010).

Series [1] addresses Cytochrome P450 2C9 (Homo sapiens, UniProt P11712). Briefly: Inhibition of CYP2C9. The class given is ADME.
Series [2] deals with T1, Cytochrome P450 1A2 (Homo sapiens, UniProt P05177).
T1 sequence (P05177 whole entry): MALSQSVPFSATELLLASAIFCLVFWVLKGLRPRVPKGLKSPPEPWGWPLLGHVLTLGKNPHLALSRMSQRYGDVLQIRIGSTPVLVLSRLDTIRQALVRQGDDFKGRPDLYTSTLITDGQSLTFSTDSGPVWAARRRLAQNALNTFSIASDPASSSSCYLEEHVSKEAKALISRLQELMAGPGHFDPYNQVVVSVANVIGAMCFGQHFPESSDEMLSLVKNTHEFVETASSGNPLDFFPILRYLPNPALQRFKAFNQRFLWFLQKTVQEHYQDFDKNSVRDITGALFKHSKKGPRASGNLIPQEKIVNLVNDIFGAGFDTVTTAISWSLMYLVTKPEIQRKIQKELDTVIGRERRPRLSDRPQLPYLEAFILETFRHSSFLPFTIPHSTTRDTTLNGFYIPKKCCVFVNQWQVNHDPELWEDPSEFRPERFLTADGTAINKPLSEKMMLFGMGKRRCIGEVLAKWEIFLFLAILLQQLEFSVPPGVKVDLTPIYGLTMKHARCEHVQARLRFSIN
Briefly: Inhibition of CYP1A2. The class given is ADME.

A short description of series [3]: Inhibition of PKA.
Series [4] can be described thus: Inhibition of ROCK by enzyme-coupled luciferase-kinase assay.
Series [5] in a line: Selectivity ratio of IC50 for PKA to IC50 to ROCK.
Series [6] deals with Cytochrome P450 2D6 (Homo sapiens, UniProt P10635). Briefly: Inhibition of CYP2D6. The series is classed as ADME.
The target of series [7] is Cytochrome P450 3A4 (Homo sapiens, UniProt P08684). Briefly: Inhibition of CYP3A4. The class given is ADME.
Cytochrome P450 3A4, sequence (P08684 whole entry): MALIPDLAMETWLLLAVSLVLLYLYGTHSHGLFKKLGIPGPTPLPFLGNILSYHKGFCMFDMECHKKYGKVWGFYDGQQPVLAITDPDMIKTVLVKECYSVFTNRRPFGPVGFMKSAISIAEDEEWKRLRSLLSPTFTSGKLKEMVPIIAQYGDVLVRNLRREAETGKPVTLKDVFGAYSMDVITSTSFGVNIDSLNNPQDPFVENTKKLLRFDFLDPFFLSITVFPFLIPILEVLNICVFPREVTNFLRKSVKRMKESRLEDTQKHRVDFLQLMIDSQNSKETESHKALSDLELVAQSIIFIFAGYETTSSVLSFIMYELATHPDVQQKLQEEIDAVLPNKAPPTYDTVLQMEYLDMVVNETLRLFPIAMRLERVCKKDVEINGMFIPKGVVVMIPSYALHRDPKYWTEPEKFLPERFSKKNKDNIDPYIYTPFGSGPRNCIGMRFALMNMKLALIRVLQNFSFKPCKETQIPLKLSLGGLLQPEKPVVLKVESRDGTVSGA

Cytochrome P450 2C9, sequence (P11712 whole entry): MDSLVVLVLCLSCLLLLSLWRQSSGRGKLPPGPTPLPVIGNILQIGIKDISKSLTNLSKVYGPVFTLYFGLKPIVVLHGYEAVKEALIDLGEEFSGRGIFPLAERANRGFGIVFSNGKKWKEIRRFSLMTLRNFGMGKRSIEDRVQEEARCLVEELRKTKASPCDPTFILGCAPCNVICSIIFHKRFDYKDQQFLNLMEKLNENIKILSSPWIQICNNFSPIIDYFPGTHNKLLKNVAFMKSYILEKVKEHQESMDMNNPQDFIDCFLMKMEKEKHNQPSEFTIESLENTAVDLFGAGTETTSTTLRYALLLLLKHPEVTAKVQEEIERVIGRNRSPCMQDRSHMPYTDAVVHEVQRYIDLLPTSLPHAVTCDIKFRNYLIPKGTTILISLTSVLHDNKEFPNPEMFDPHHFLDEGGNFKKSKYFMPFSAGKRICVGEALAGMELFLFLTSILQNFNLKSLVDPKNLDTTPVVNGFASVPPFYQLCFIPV
Cytochrome P450 2D6, sequence (P10635 whole entry): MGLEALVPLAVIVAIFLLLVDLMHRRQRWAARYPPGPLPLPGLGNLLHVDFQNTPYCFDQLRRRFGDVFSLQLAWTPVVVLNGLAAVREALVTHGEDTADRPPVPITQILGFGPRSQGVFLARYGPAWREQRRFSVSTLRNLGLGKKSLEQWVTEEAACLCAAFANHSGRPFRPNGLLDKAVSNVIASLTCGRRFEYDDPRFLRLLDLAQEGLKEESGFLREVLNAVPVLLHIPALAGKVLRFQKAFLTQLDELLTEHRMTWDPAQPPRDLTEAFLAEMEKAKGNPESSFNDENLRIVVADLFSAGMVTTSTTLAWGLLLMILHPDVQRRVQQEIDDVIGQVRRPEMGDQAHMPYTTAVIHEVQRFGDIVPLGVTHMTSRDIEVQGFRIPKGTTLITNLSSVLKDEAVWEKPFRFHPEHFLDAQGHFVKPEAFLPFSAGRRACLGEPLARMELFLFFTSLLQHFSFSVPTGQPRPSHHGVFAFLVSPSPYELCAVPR

`c1ccc2c(c1)CC(c1nc3ccc(-c4ccncc4)cc3[nH]1)CO2` (stereo not drawn): the result in series [1], in series [2], in series [6] and in series [7] was Active. In addition, the IC50 (in general, the concentration that inhibits the measured activity by half) in series [3] was 252 nM; in series [4] it was 1.7 nM. The Ratio IC50 in series [5] came to 148.
Take `COc1c(-c2ccncc2)ccc2nc(C3COc4ccccc4C3)[nH]c12` (stereo not drawn): the outcome in series [1], in series [2], in series [6] and in series [7] was Active. Besides, the IC50 in series [3] came to 187 nM; in series [4], 4.1 nM. For the same molecule, the Ratio IC50 in series [5] was 46.
As for `COc1cccc2c1CC(c1nc3ccc(-c4ccnc(N)n4)cc3[nH]1)CO2` (stereo not drawn), the IC50 in series [3] is 310 nM; in series [4] it was 25 nM. The Ratio IC50 in series [5] came out at 12.
For the molecule `COc1ccc2c(c1)CC(c1nc3c(OCCCO)cc(-c4ccncc4)cc3[nH]1)CO2` (stereo not drawn), the result in series [1], in series [2], in series [6] and in series [7] was Active. The values for the IC50 in series [3] and in series [4] were 1590 nM and 183 nM, respectively. Moreover, the Ratio IC50 in series [5] amounted to 9.
Take `Nc1nccc(-c2ccc3nc(C4COc5ccc(C(=O)NCCO)cc5C4)[nH]c3c2)n1` (stereo not drawn): the IC50 in series [3] turned out to be 370 nM; in series [4] it was 2.8 nM. The Ratio IC50 in series [5] came to 132.
`Cc1c(-c2ccncc2)cc2[nH]c(C3COc4ccccc4O3)nc2c1C` (stereo not drawn): the outcome in series [1], in series [2], in series [6] and in series [7] was Active. Also, the IC50 in series [3] and in series [4] was greater than 20000 nM each time.
Turning to `Nc1nccc(-c2ccc3nc(C4COc5ccc(C(=O)NCCc6ccccn6)cc5C4)[nH]c3c2)n1` (stereo not drawn), the IC50 was determined as 305 nM in series [3] and 0.43 nM in series [4]. The Ratio IC50 in series [5] was 709.
Taken in the same sequence, the figures for `Nc1nccc(-c2ccc3nc(C4COc5ccc(C(=O)NCc6cccnc6)cc5C4)[nH]c3c2)n1` (stereo not drawn) were 82 nM, 0.78 nM and 105.
Taken in the same sequence, the figures for `Nc1nccc(-c2ccc3nc(C4COc5ccc(C(=O)NCc6ccccc6)cc5C4)[nH]c3c2)n1` (stereo not drawn) were 78 nM, less than 1 nM and 78.
Taken in the same sequence, the figures for `COc1ccc2c(c1)OCC(c1nc3ccc(-c4ccnc(N)n4)cc3[nH]1)C2` (stereo not drawn) were 435 nM, 95 nM and 4.6.
With `Nc1nccc(-c2ccc3nc(C4COc5ccccc5C4)[nH]c3c2)n1` (stereo not drawn), the figures for the IC50 in series [3] and in series [4] were 195 nM and 8 nM, respectively. Moreover, the Ratio IC50 in series [5] was found to be 24.
Taken in the same sequence, the figures for `CN(C)C(=O)c1ccc2c(c1)CC(c1nc3ccc(-c4ccnc(N)n4)cc3[nH]1)CO2` (stereo not drawn) were 1730 nM, 129 nM and 13.
Taken in the same sequence, the figures for `COc1cccc2c1OCC(c1nc3ccc(-c4ccnc(N)n4)cc3[nH]1)C2` (stereo not drawn) were 232 nM, 256 nM and 0.9.
Taken in the same sequence, the figures for `Nc1nccc(-c2ccc3nc(C4COc5ccc(C(=O)NCCc6ccccc6)cc5C4)[nH]c3c2)n1` (stereo not drawn) were 700 nM, 1.7 nM and 412.
`Nc1nccc(-c2ccc3nc(C4COc5ccc(C(=O)NC6CCCCC6)cc5C4)[nH]c3c2)n1` (stereo not drawn): the IC50 in series [3] amounted to 20 nM; in series [4], 1.1 nM. For the same molecule, the Ratio IC50 in series [5] turned out to be 18.
Taken in the same sequence, the figures for `CN(C)CCNC(=O)c1ccc2c(c1)CC(c1nc3ccc(-c4ccnc(N)n4)cc3[nH]1)CO2` (stereo not drawn) were 328 nM, 1.5 nM and 219.
